Assay results as given in patent US4404201A, “Cephalosporins” (Warner-Lambert Company, priority 1981, dated 1983).

Experiments:
Format in all cases: cell-based
Staph UC76 = experiment: Minimal Inhibitory Concentration, Staph UC76; conditions: sodium salt
Serr. Mar. IMM 16 = experiment: Minimal Inhibitory Concentration, Serr. Mar. IMM 16; conditions: sodium salt
Entero Cloac. IM 11 = experiment: Minimal Inhibitory Concentration, Entero Cloac. IM 11; conditions: sodium salt
E. Coli Vogel = experiment: Minimal Inhibitory Concentration, E. Coli Vogel; conditions: Escherichia coli, sodium salt
Klebs. Pneum. MGH 2 = experiment: Minimal Inhibitory Concentration, Klebs. Pneum. MGH 2; conditions: sodium salt
E. Coli Brig = experiment: Minimal Inhibitory Concentration, E. Coli Brig; conditions: Escherichia coli, sodium salt
Pseudomonas BRK 12-4-4 = experiment: Minimal Inhibitory Concentration, Pseudomonas BRK 12-4-4; conditions: BRK1244, sodium salt
Pseudomonas #28 = experiment: Minimal Inhibitory Concentration, Pseudomonas #28; conditions: sodium salt
Strep. fec. MGH 2 = experiment: Minimal Inhibitory Concentration, Strep. fec. MGH 2; conditions: sodium salt
Pseudomonas UI 18 = experiment: Minimal Inhibitory Concentration, Pseudomonas UI 18; conditions: UI18, sodium salt
Staph S 18713 = experiment: Minimal Inhibitory Concentration, Staph S 18713; conditions: sodium salt
Prot Vulg. = experiment: Minimal Inhibitory Concentration, Prot Vulg.; conditions: sodium salt

Row | Compound | MIC (Staph UC76) [mg/L] | MIC (Serr. Mar. IMM 16) [mg/L] | MIC (Entero Cloac. IM 11) [mg/L] | MIC (E. Coli Vogel) [mg/L] | MIC (Klebs. Pneum. MGH 2) [mg/L] | MIC (E. Coli Brig) [mg/L] | MIC (Pseudomonas BRK 12-4-4) [mg/L] | MIC (Pseudomonas #28) [mg/L] | MIC (Strep. fec. MGH 2) [mg/L] | MIC (Pseudomonas UI 18) [mg/L] | MIC (Staph S 18713) [mg/L] | MIC (Prot Vulg.) [mg/L]
1 | CC(=O)N[C@@H](C)C(=O)Nc1ccc2c(=O)c(C(=O)N[C@@H](C(=O)NC3C(=O)N4C(C(=O)O)=C(CSc5nnnn5CS(=O)(=O)O)CSC34)c3ccccc3)c[nH]c2c1 (stereo partly drawn) [Example 1, N-[7-[[L-2-(Acetylamino)-1-oxopropyl]amino]-1,4-dihydro-4-oxo-3-quinolinylcarbonyl]-7-[D-2-amino-2-phenylacetamido]-3-[[(1-sulfomethyl-1H-tetrazol-5-yl)thio]methyl]-3-cephem-4-carboxylic acid] | 6.3 | 3.2 | 6.3 | 0.8 | 0.8 | > 50 | 6.3 | 3.1 | > 50 | 3.1 | 12.5 | 0.8
2 | CC(=O)N[C@@H](C)C(=O)Nc1ccc2c(=O)c(C(=O)N[C@@H](C(=O)NC3C(=O)N4C(C(=O)O)=C(CSc5nnnn5C)CSC34)c3ccc(O)cc3)c[nH]c2c1 (stereo partly drawn) [Example 2, N-[7-[[L-2-(Acetylamino)-1-oxopropyl]amino]-1,4-dihydro-4-oxo-3-quinolinylcarbonyl]-7-[D-2-amino-2-(4-hydroxyphenyl)acetamido]-3-[[(1-methyl-1H-tetrazol-5-yl)thio]methyl]-3-cephem-4-carboxylic acid] | 3.1 | 0.3 | 3.1 | 0.4 | 0.4 | > 50 | 3.1 | 3.1 | 25 | 6.3 | 6.3 | 3.1
3 | CC(=O)N[C@@H](C)C(=O)Nc1ccc2c(=O)c(C(=O)N[C@@H](C(=O)NC3C(=O)N4C(C(=O)O)=C(COC(C)=O)CSC34)c3ccc(O)cc3)c[nH]c2c1 (stereo partly drawn) [Example 3, N-[7-[[L-2-(Acetylamino)-1-oxopropyl]amino]-1,4-dihydro-4-oxo-3-quinolinylcarbonyl]-7-[D-2-amino-2-(4-hydroxyphenyl)acetamido]-3-acetoxymethyl-3-cephem-4-carboxylic acid] | 3.1 | 50 | 12.5 | 1.6 | 1.6 | 12.5 | 6.3 | 3.1 | 25 | 3.1 | 6.3 | 6.3
4 | CC(=O)N[C@@H](CCC(N)=O)C(=O)Nc1ccc2c(=O)c(C(=O)N[C@@H](C(=O)NC3C(=O)N4C(C(=O)O)=C(COC(C)=O)CSC34)c3ccc(O)cc3)c[nH]c2c1 (stereo partly drawn) [Example 4, N-[7-[[L-2-(Acetylamino)-5-amino-1,5-dioxopentyl]amino]-1,4-dihydro-4-oxo-3-quinolinylcarbonyl]-7-[D-2-amino-2-(4-hydroxyphenyl)acetamido]-3-acetoxymethyl-3-cephem-4-carboxylic acid] | 3.1 | > 50 | 12.5 | 0.8 | 3.1 | > 50 | 6.3 | 3.1 | 25 | 12.5 | 6.3 | 6.3
5 | CC(=O)N[C@@H](CCC(N)=O)C(=O)Nc1ccc2c(=O)c(C(=O)N[C@@H](C(=O)NC3C(=O)N4C(C(=O)O)=C(CSc5nnnn5C)CSC34)c3ccc(O)cc3)c[nH]c2c1 (stereo partly drawn) [Example 5, N-[7-[[L-2-(Acetylamino)-5-amino-1,5-dioxopentyl]amino]-1,4-dihydro-4-oxo-3-quinolinylcarbonyl]-7-[D-2-amino-2-(4-hydroxyphenyl)acetamido]-3-[[(1-methyl-1H-tetrazol-5-yl)thio]methyl]-3-cephem-4-carboxylic acid] | 3.1 | 6.3 | 3.1 | 0.4 | 0.8 | > 50 | 6.3 | 3.1 | 25 | 6.3 | 6.3 | 3.1
6 | Cn1nnnc1SCC1=C(C(=O)O)N2C(=O)C(NC(=O)[C@H](NC(=O)c3c[nH]c4cc(NC(=O)[C@@H]5CCC(=O)N5)ccc4c3=O)c3ccccc3)C2SC1 (stereo partly drawn) [Example 6, N-[1,4-Dihydro-4-oxo-7-[[(L-5-oxo-2-pyrrolidinyl)carbonyl]amino]-3-quinolinylcarbonyl]-7-[D-2-amino-2-phenylacetamido]-3-[[(1-methyl-1H-tetrazol-5-yl)thio]methyl]-3-cephem-4-carboxylic acid] | 0.8 | 25 | 6.3 | 0.8 | 1.6 | 6.3 | 12.5 | 6.3 | – | 12.5 | 3.1 | 6.3
7 | CC(=O)N[C@@H](C)C(=O)Nc1ccc2[nH]cc(C(=O)N[C@@H](C(=O)NC3C(=O)N4C(C(=O)O)=C(CSc5nnnn5C)CSC34)c3ccccc3)c(=O)c2c1 (stereo partly drawn) [Example 7, N-[6-[[L-2-(Acetylamino)-1-oxopropyl]amino]-1,4-dihydro-4-oxo-3-quinolinylcarbonyl]-7-[D-2-amino-2-phenylacetamido]-3-[[(1-methyl-1H-tetrazol-5-yl)thio]methyl]-3-cephem-4-carboxylic acid] | 1.6 | 25 | 12.5 | 1.6 | 3.1 | 12.5 | 12.5 | 6.3 | – | 6.3 | 6.3 | 3.1
8 | CC(=O)N[C@@H](C)C(=O)Nc1ccc2[nH]c(=O)c(C(=O)N[C@@H](C(=O)NC3C(=O)N4C(C(=O)O)=C(COC(C)=O)CSC34)c3ccc(O)cc3)cc2c1 (stereo partly drawn) [Example 8, N-[6-[[L-2-(Acetylamino)-1-oxopropyl]amino]-1,2-dihydro-2-oxo-3-quinolinylcarbonyl]-7-[D-2-amino-2-(4-hydroxyphenyl)acetamido]-3-acetoxymethyl-3-cephem-4-carboxylic acid] | 3.1 | > 50 | 25 | 6.3 | 25 | 50 | 6.3 | 3.1 | – | 3.1 | 6.3 | 25
